Measured values from US5656588A, “Wound healing formula” (Wake Forest University, priority 1994, dated 1997).
Entries after “also recorded” stand apart in the source; their conditions may differ. Where two headings read alike, the source gives them in different places.

Experiments:
wound healing [1] = conditions: supplementation of the diet, animals and humans; cited from earlier work
wound healing [2] = test: Wound strength (abdominal bursting strength) in animals given carnosine or histidine following surgery; format: in vivo; conditions: supplement to a complete diet, mammals not nutritionally deprived
Description: Pursuant to the present invention, therapeutically effective amounts of carnosine are supplemented with a complete diet. […] Previous studies in this area have advocated that the wound healing effects can be achieved with histamine or histidine. […] Table 2 illustrates comparative results between carnosine and histidine administered to animals following surgery.

[3] = test system: gastric and duodenal ulcers; conditions: food deprived rats; cited from earlier work

**Q.** Which “Effect on wound healing (in words)” value (wound healing [1]) does the source give for `N=C(N)NCCC[C@H](N)C(=O)O` [arginine] here?
**A.** improves wound healing

**Q.** With `NCCC(=O)N[C@@H](Cc1c[nH]cn1)C(=O)O` [carnosine, β-alanyl-histidine] as the molecule, how does the “Effect on wound healing (in words)” value (wound healing [2]) read?
**A.** improves wound healing; also recorded: more effective in stimulating wound healing than histidine treatment

**Q.** Which “Protection against ulcer formation (in words)” value [3] does the source give for N-acetyl-L-carnosine aluminum here?
**A.** protects against the formation of gastric and duodenal ulcers
